The values that follow are results of earlier work, collected in publication PMC4642890 (Bioorganic & medicinal chemistry letters, 2015).

The series deals with neuropathic pain. The note with it: rodent model.

As to “Tyr^1-DAla^2-Gly^3-Phe^4-Met^5-Pro^6-Leu^7-Trp^8-NH-[3’,5’-Bzl(CF3)2] [TY027]”, the “effect on neuropathic pain” value is “reverse neuropathic pain”, the opioid-induced tolerance result is “no sign of opioid-induce tolerance” and the reward liability result is on record as “no development of reward liability”.

Take “Tyr^1-DAla^2-Gly^3-Phe^4-Met^5-Pro^6-Leu^7-Trp^8-O-[3’,5’-Bzl(CF3)2] [TY005]”: the “effect on neuropathic pain” value is recorded as “reverse neuropathic pain”, the opioid-induced tolerance result was “no sign of opioid-induce tolerance” and the reward liability result is on record as “no development of reward liability”.
